Experiment [1] concerns the target T1, human ADRA2B receptor (Homo sapiens, UniProt P18089).
T1 construct: expressed in transfected cells
T1 sequence (P18089 1-450): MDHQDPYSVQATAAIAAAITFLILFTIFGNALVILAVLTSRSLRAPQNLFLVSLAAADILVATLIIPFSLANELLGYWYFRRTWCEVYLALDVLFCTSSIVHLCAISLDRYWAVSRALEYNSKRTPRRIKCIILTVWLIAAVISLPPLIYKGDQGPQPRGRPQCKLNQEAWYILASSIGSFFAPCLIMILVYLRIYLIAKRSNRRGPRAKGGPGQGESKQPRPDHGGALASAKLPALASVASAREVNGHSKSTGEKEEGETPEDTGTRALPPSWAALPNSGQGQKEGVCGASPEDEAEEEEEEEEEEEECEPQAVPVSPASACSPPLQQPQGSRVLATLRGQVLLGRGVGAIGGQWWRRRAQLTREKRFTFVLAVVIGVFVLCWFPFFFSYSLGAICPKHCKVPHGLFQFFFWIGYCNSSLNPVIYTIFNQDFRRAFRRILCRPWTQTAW
Nature of the experiment: ADRA2B arrestin agonist assay. It is filed as cell-based. The note with it: CHO-K1 cells stably expressing human ADRA2B; read-out: Beta-Arrestin - Human Alpha2B EC50. On the procedure: ADRA2A and ADRA2B Arrestin Agonist Assay Method
The arrestin assay uses frozen CHO-K1 cell lines stably expressing human ADRA2A and ADRA2B receptors. Cells are frozen following normal cell freezing protocols. Briefly, cells are washed with PBS and then dissociated with 0.25% trypsin. Dissociated cells are quenched in full media and then collected by centrifugation at 290×g for 5 minutes. […] Cells are stored at −80° C. (or in liquid N2 if stored >6 months) until the day of the assay.
On the day before the assay, frozen cells are thawed in a 37° C. water bath, brought up in 20 mL of full media, and collected via centrifugation at 290×g for 5 minutes. […] Cells are incubated overnight in a 37° C., 5% CO2 cell incubator.
On the day of the assay, agonists are diluted in Opti-MEM to 3.5x of the final assay concentration. 4 μL of agonists are added to the cells and incubated for 2 hours at 37° C. in a 5% CO2 cell incubator. 6 μL of arrestin detection reagents are dispensed onto the cells and the plates are incubated for 2 hours at room temperature. […] Plates are read on an Envision luminescence plate reader.

The target in experiment [2] is T1, human ADRA2B receptor. The experiment in a line: GTPγS agonist assay, ADRA2B receptor. In kind it is biochemical. As to conditions: read-out: GTPase - Human Alpha2B EC50. Summed up:
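CHO-K1 membranes stably expressing human ADRA2B (5 μg protein) in 20 mM HEPES, 10 mM MgCl2, 200 mM NaCl with GDP, preincubated 10 min at room temperature with compound. Binding reaction 1 h at 37° C; bound label collected on GF/C filters, washed, read by scintillation counting.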

Take `Clc1cccc(C(Cc2cccnn2)c2c[nH]cn2)c1` (centres unmarked) [Compound 139, 3-[2-(m-chlorophenyl)-2-(4-imidazolyl)ethyl] pyridazine]: the 50% effective concentration (EC50) in experiment [1] is over 0.5 µM.
In the case of `COc1cccc(C(Cc2cccnn2)c2c[nH]cn2)c1C` (centres unmarked) [Compound 140, 3-[2-(4-imidazolyl)-2 (3-methoxy-2-tolyl)ethyl]pyridazine], in experiment [1], the EC50 was over 0.5 µM.
On the same count and under the same terms, the result for `Cc1nccc(C[C@@H](c2c[nH]cn2)c2cccc(C)c2F)n1` [Compound 141, 4-[(R)-2-(2-fluoro-3-tolyl)-2-(4-imidazolyl)ethyl]-2-methylpyrimidine] reads under 0.01 µM; that for `Cc1nccc(C[C@H](c2c[nH]cn2)c2cccc(C)c2F)n1` [Compound 142, 4-[(S)-2-(2-fluoro-3-tolyl)-2-(4-imidazolyl)ethyl]-2-methylpyrimidine], over 0.5 µM.
Regarding `Cc1cccc([C@H](Cc2cccnn2)c2c[nH]cn2)c1Cl` [Compound 213, 3-[(S)-2-(2-chloro-3-tolyl)-2-(4-imidazolyl)ethyl] pyridazine], the EC50 in experiment [2] lay within 0.01 to 0.05 µM.
Still for that read-out and setting: the result for `Cc1cccc([C@@H](Cc2cccnn2)c2c[nH]cn2)c1Cl` [Compound 214, 3-[(R)-2-(2-chloro-3-tolyl)-2-(4-imidazolyl)ethyl] pyridazine] reads over 0.5 µM; that for `Clc1ccc(C(Cc2cccnn2)c2c[nH]cn2)cc1` (centres unmarked) [Compound 217, 3-[2-(p-chlorophenyl)-2-(4-imidazolyl)ethyl] pyridazine], over 0.5 µM; that for `Fc1cccc(C(Cc2cccnn2)c2c[nH]cn2)c1Cl` (centres unmarked) [Compound 218, 3-[2-(2-chloro-3-fluorophenyl)-2-(4-imidazolyl)ethyl] pyridazine], over 0.5 µM.
The same measure, in the same setting: the result for `Fc1c(Cl)cccc1C(Cc1cccnn1)c1c[nH]cn1` (centres unmarked) [Compound 219, 3-[2-(3-chloro-2-fluorophenyl)-2-(4-imidazolyl)ethyl] pyridazine] reads over 0.5 µM; that for `FC(F)(F)Oc1ccc(C(Cc2cccnn2)c2c[nH]cn2)cc1` (centres unmarked) [Compound 220, 3-[2-(4-imidazolyl)-2-(p-trifluoromethoxyphenyl)ethyl]pyridazine], over 0.5 µM; that for `Cc1ccc(C(F)(F)F)cc1C(Cc1cccnn1)c1c[nH]cn1` (centres unmarked) [Compound 221, 3-{2-(4-imidazolyl)-2-[5-(trifluoromethyl)-2-tolyl]ethyl}pyridazine], over 0.5 µM.
As for `COc1ccc(C(Cc2cccnn2)c2c[nH]cn2)cc1` (centres unmarked) [Compound 222, 3-[2-(4-imidazolyl)-2-(p-methoxyphenyl)ethyl] pyridazine], the EC50 in experiment [2] was over 0.5 µM.
The same measure, in the same setting: the result for `FC(F)(F)c1ccc(C(Cc2cccnn2)c2c[nH]cn2)cc1` (centres unmarked) [Compound 223, 3-{2-(4-imidazolyl)-2-[p-(trifluoromethyl)phenyl]ethyl}pyridazine] reads over 0.5 µM; that for `Fc1ccc(C(Cc2cccnn2)c2c[nH]cn2)cc1F` (centres unmarked) [Compound 224, 3-[2-(3,4-difluorophenyl)-2-(4-imidazolyl)ethyl] pyridazine], over 0.5 µM; that for `Cc1ccc(Cl)cc1C(Cc1cccnn1)c1c[nH]cn1` (centres unmarked) [Compound 225, 3-[2-(5-chloro-2-tolyl)-2-(4-imidazolyl)ethyl] pyridazine], over 0.5 µM.
`CCOc1ccc(C(Cc2cccnn2)c2c[nH]cn2)cc1C(F)(F)F` (centres unmarked) [Compound 226, 3-(2-[4-ethoxy-3-(trifluoromethyl)phenyl]-2-(4-imidazolyl)ethyl] pyridazine]: the 50% effective concentration (EC50) in experiment [2] was over 0.5 µM.
Same read-out and setting: the result for `COc1ccc(Cl)c(C(Cc2cccnn2)c2c[nH]cn2)c1` (centres unmarked) [Compound 227, 3-[2-(2-chloro-5-methoxyphenyl)-2-(4-imidazolyl)ethyl] pyridazine] reads over 0.5 µM; that for `Cc1cccc(C(Cc2cccnn2)c2c[nH]cn2)c1` (centres unmarked) [Compound 228, 3-[2-(4-imidazolyl)-2-(m-tolyl)ethyl]pyridazine], over 0.5 µM; that for `C#Cc1cccc(C(Cc2cccnn2)c2c[nH]cn2)c1` (centres unmarked) [Compound 229, 3-[2-(m-ethynylphenyl)-2-(4-imidazolyl)ethyl] pyridazine], over 0.5 µM.
Consider `Cn1ncc2cc(C(Cc3cccnn3)c3c[nH]cn3)ccc21` (centres unmarked) [Compound 230, 5-[1-(4-imidazolyl)-2-(3-pyridazinyl)ethyl]-1-methyl-1H-indazole], for which, in experiment [2], the EC50 was over 0.5 µM.
For the molecule `CCOc1c(F)cccc1C(Cc1cccnn1)c1c[nH]cn1` (centres unmarked) [Compound 231, 3-[2-(2-ethoxy-3-fluorophenyl)-2-(4-imidazolyl)ethyl] pyridazine], in experiment [2], the EC50 is over 0.5 µM.
In the case of `Cc1nnc(CC(c2c[nH]cn2)c2cccc(C)c2C)o1` (centres unmarked) [Compound 241, 2-[2-(4-imidazolyl)-2-(2,3-xylyl)ethyl]-5-methyl-1,3,4-oxadiazole], the EC50 in experiment [2] fell in the range of 0.01 to 0.05 µM.
Still for that read-out and setting: the same measure for `Cc1cccc(C(Cc2cnn(C3CC3)c2)c2c[nH]cn2)c1C` (centres unmarked) [Compound 271, 1-cyclopropyl-4-[2-(4-imidazolyl)-2-(2,3-xylyl)ethyl]pyrazole]: under 0.01 µM; for `Cc1cccc(C(Cc2cnn(C(C)C)c2)c2c[nH]cn2)c1C` (centres unmarked) [Compound 277, 4-[2-(4-imidazolyl)-2-(2,3-xylyl)ethyl]-1-isopropylpyrazole]: 0.01 to 0.05 µM; for `Cc1cnc(CC(c2c[nH]cn2)c2cccc3c2OCC3)s1` (centres unmarked) [Compound 279, 2-[2-(2,3-dihydro-1-benzofuran-7-yl)-2-(4-imidazolyl)ethyl]-5-methyl-1,3-thiazole]: 0.01 to 0.05 µM.
Same read-out and setting: the result for `c1cc2c(c([C@@H](Cc3cnn(C4CC4)c3)c3c[nH]cn3)c1)OCC2` [Compound 289] reads over 0.5 µM; that for `c1cc2c(c([C@H](Cc3cnn(C4CC4)c3)c3c[nH]cn3)c1)OCC2` [Compound 290, 4-[(S)-2-(2,3-dihydro-1-benzofuran-7-yl)-2-(4-imidazolyl)ethyl]-1-], under 0.01 µM; that for `Cc1cccc(C(Cc2ccc(N3CCCC3)nc2)c2c[nH]cn2)c1C` (centres unmarked) [Compound 309, 4-{2-[6-(1-pyrrolidinyl)-3-pyridyl]-1-(2,3-xylyl)ethyl}imidazole], 0.01 to 0.05 µM.
As for `Cc1cccc(C(Cc2cc(C(F)(F)F)nn2C)c2c[nH]cn2)c1C` (centres unmarked) [Compound 310, 5-[2-(4-imidazolyl)-2-(2,3-xylyl)ethyl]-1-methyl-3-(trifluoromethyl)pyrazole], the EC50 in experiment [2] was under 0.01 µM.
Still for that read-out and setting: the result for `COc1ncc(CC(c2c[nH]cn2)c2cccc3c2OCC3)c(OC)n1` (centres unmarked) [Compound 312, 5-[2-(2,3-dihydro-1-benzofuran-7-yl)-2-(4-imidazolyl)ethyl]-2,4-dimethoxypyrimidine] reads 0.01 to 0.05 µM.
Take `c1cnnc(C[C@@H](c2c[nH]cn2)c2cccc3c2CCO3)c1` [Compound 324, 3-[(R)-2-(2,3-dihydro-1-benzofuran-4-yl)-2-(4-imidazolyl)ethyl]pyridazine]: the EC50 in experiment [2] is over 0.5 µM.
On to `COc1cc(CC(c2c[nH]cn2)c2cccc3c2OCC3)nc(OC)n1` (centres unmarked) [Compound 335, 4-(2-(2,3-dihydrobenzofuran-7-yl)-2-(1H-imidazol-4-yl)ethyl)-2,6-dimethoxypyrimidine], for which the EC50 in experiment [2] was under 0.01 µM.
On the same count and under the same terms, the result for `Cc1nccc(CC(c2c[nH]cn2)c2cccc3ncoc23)n1` (centres unmarked) [Compound 338, 7-[1-(4-imidazolyl)-2-(2-methyl-4-pyrimidinyl)ethyl]-1,3-benzoxazole] reads over 0.5 µM.
Still for that read-out and setting: the result for `COc1nccc(CC(c2c[nH]cn2)c2cccc3c2OCCCO3)n1` (centres unmarked) [Compound 355, 4-[2-(3,4-dihydro-2H-1,5-benzodioxepin-6-yl)-2-(4-imidazolyl)ethyl]-2-methoxypyrimidine] reads 0.05 to 0.5 µM.
Consider `COc1cccc(C(Cc2cccnn2)c2c[nH]cn2)c1F` (centres unmarked) [Compound 360, 3-[2-(2-fluoro-3-methoxyphenyl)-2-(4-imidazolyl)ethyl]pyridazine], for which the EC50 in experiment [2] was over 0.5 µM.
Still for that read-out and setting: the result for `FC(F)(F)c1ccc(Cl)c(C(Cc2cccnn2)c2c[nH]cn2)c1` (centres unmarked) [Compound 361, 3-{2-[2-chloro-5-(trifluoromethyl)phenyl]-2-(4-imidazolyl)ethyl}pyridazine] reads over 0.5 µM.
Still for that read-out and setting: the same measure for `c1cnnc(C[C@H](c2c[nH]cn2)c2cccc3c2OCC3)c1` [Compound 363, 3-[(S)-2-(2,3-dihydro-1-benzofuran-7-yl)-2-(4-imidazolyl)ethyl]pyridazine]: over 0.5 µM.
In the case of `Cc1cccc([C@@H](Cc2cnco2)c2c[nH]cn2)c1C` [Compound 365, 5-[(R)-2-(4-imidazolyl)-2-(2,3-xylyl)ethyl]-1,3-oxazole], the EC50 in experiment [2] is over 0.5 µM.

For orientation: EC50 means the concentration needed to bring the measured effect to its halfway point.

The record behind these values is US20260042769A1, “TRIARYL AGONISTS OF ALPHA-2 ADRENERGIC RECEPTORS” (ALCEPTOR THERAPEUTICS, INC., priority 2023, published 2026).
